From patent US20050148534A1, “Small molecule compositions and methods for increasing drug efficiency using compositions thereof” (priority 2003, published 2005)

What was measured:
tubulin = assay: Fluorescence-based microtubule polymerization assay (MPA); format: biochemical; details: mean percentage of paclitaxel or vinblastine activity; 0.75-10 micromolar
From the text: Drug-linker constructs may further be screened using functional assays predictive of biological activity. […] Tubulin assembly or inhibition thereof may be monitored by fluorescence using the CytoDYNAMIX Screen™ 10 kit available from Cytoskeleton (1830 S. Acoma St., Denver, Colo.). […] Emission is monitored at 405 nm with excitation at 360 nm. […] Tubulin assembly or inhibition may also be monitored by light scattering which is approximated by the apparent absorption at 350 nm. For paclitaxel drug conjugates BSA is employed to prevent aggregation and glycerol, which is a tubulin polymerization enhancer, is omitted from the kit to increase the signal to noise ratio.
The assay kit (#BK011) was purchased from Cytoskeleton (Denver, Colo.). The assays were carried out according to the manufacturer's instructions, except that 1 mg/ml BSA (Sigma #A3059) was included in all assays. […] Parent drugs and conjugates were tested at 0.75, 1.5, 3 and 10 micromolar final concentration and results represent a comparison of conjugate and parent drug curves obtained from the linear range of the dose responses.

TK2 = target: T1, TK2 (Homo sapiens, UniProt O00142); parameters: unit not given here; details: substrate activity; literature (Johansson et al.; Eriksson et al.; Wang et al.), source per Table 3; cited from earlier work
T1 sequence (O00142 34-265): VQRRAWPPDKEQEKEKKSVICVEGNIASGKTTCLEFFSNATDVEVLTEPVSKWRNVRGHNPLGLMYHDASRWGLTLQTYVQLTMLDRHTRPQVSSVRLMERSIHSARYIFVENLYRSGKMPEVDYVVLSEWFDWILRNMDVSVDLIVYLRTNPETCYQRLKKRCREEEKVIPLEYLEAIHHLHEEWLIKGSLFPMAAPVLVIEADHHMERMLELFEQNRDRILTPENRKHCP

[1] = target: deoxycytidine kinase (dCK) (Homo sapiens, UniProt P27707); details: cited from earlier work; for dCK: substrate activity, literature (Johansson et al.; Eriksson et al.; Wang et al.), source per Table 3
Chain of deoxycytidine kinase (dCK) (P27707 whole entry, species assumed): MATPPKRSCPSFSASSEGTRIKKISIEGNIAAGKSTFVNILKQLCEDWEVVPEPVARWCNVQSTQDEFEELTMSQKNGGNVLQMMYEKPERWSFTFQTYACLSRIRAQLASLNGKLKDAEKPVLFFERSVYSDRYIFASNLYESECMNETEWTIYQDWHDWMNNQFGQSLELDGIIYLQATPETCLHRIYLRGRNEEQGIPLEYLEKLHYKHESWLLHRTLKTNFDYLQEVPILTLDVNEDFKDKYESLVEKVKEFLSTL

Compound | TK2 (TK2) | dCK [1] | other results
CC(=O)O[C@@]12CO[C@@H]1C[C@H](O)[C@@]1(C)C(=O)[C@H](OC(=O)CCCCCN)C3=C(C)[C@@H](OC(=O)[C@H](O)[C@@H](NC(=O)c4ccccc4)c4ccccc4)C[C@@](O)([C@@H](OC(=O)c4ccccc4)[C@H]21)C3(C)C [PXL-10Es-ALK(5)-NH2] | – | – | Ave. MPA Act (tubulin): B (B=60-100)
Cc1cn([C@H]2C[C@@H](O)[C@H](CO)O2)c(=O)[nH]c1=O [α-L-Thy] | 1.5 | – | –
Nc1ccn([C@@H]2C[C@H](O)[C@@H](CO)O2)c(=O)n1 [α-D-dC] | 1.8 | – | –
Nc1nc(=O)n([C@H]2C[C@H](O)[C@@H](CO)O2)cc1F [R2 = F, X = C] | 90 | 20 | –
Cc1cn([C@@H]2C[C@H](O)[C@@H](CO)O2)c(=O)[nH]c1=O [α-D-Thy] | 2.4 | – | –
Nc1nc(=O)n([C@H]2C[C@H](O)[C@@H](CO)O2)cc1-c1ccco1 [R2 = 2-furyl, X = C] | 10 | 3 | –
CC[C@]1(O)C[C@@H]2CN(CCc3c([nH]c4ccccc34)[C@@](C(=O)OC)(c3cc4c(cc3OC)N(C)[C@H]3[C@@](O)(C(=O)NCCCCCCNC(=O)OC(C)(C)C)[C@H](O)[C@]5(CC)C=CCN6CC[C@]43[C@@H]65)C2)C1 [VBL-3Am-ALK(6)-NH(B)] | – | – | Ave. MPA Act (tubulin): A (A<60)
CC#Cc1cn([C@@H]2O[C@H](CO)[C@@H](O)[C@@H]2O)c(=O)[nH]c1=O | 30 | – | –
Nc1nc(=O)n([C@H]2C[C@H](O)[C@@H](CO)O2)cc1Br [R2 = Br, X = C] | 40 | 20 | –
O=c1[nH]c(=O)n([C@@H]2O[C@H](CO)[C@@H](O)[C@@H]2O)cc1-c1cccs1 [R2 = 2-thienyl, R5 = OH] | 6 | – | –
O=c1[nH]c(=O)n([C@@H]2O[C@H](CO)[C@@H](O)[C@@H]2O)cc1C1CC1 [R2 = cyclopropyl, R5 = OH] | 15 | – | –
Nc1ccn([C@@H]2O[C@H](CO)[C@@H](O)[C@H]2O)c(=O)n1 [R4 = OH, R5 = H, R3 = OH] | <1 | – | –
CC(=O)O[C@@]12CO[C@@H]1C[C@H](O)[C@@]1(C)C(=O)[C@H](OC(=O)CCCCCCNC(=O)OCc3ccccc3)C3=C(C)[C@@H](OC(=O)[C@H](O)[C@@H](NC(=O)c4ccccc4)c4ccccc4)C[C@@](O)([C@@H](OC(=O)c4ccccc4)[C@H]21)C3(C)C [PXL-10Es-Alk(6)-NH(Z)] | – | – | Ave. MPA Act (tubulin): A (A<60)
Nc1nc(=O)n([C@H]2C[C@H](O)[C@@H](CO)O2)cc1-c1ccoc1 [R2 = 3-furyl, X = C] | 50 | <1 | –
Nc1nc(=O)n([C@H]2C[C@H](O)[C@@H](CO)O2)cc1-c1ccncc1 [R2 = 4-pyridyl, X = C] | 2 | 5 | –
Nc1nc(=O)n([C@H]2C[C@H](O)[C@@H](CO)O2)cc1C1CC1 [R2 = cyclopropyl, X = C] | <1 | 20 | –
CC[C@]1(O)C[C@@H]2CN(CCc3c([nH]c4ccccc34)[C@@](C(=O)OC)(c3cc4c(cc3OC)N(C)[C@H]3[C@@](O)(C(=O)NCCCCCCn5c(=O)c(C)cn([C@H]6C[C@H](O)[C@@H](COP(=O)(O)O)O6)c5=O)[C@H](O)[C@]5(CC)C=CCN6CC[C@]43[C@@H]65)C2)C1 [VBL-3Am-ALK(6)-N3-PhTHY] | – | – | Ave. MPA Act (tubulin): C (C>100)
CC[C@]1(O)C[C@@H]2CN(CCc3c([nH]c4ccccc34)[C@@](C(=O)OC)(c3cc4c(cc3OC)N(C)[C@H]3[C@@](O)(C(=O)NCCCCCCCCN)[C@H](O)[C@]5(CC)C=CCN6CC[C@]43[C@@H]65)C2)C1 [VBL-3Am-ALK(8)-NH2] | – | – | Ave. MPA Act (tubulin): B (B=60-100)
Nc1ccn(C2CC(O)C(CO)O2)c(=O)n1 [α-L-dC] | 0.4 | – | –
Cc1cn([C@@H]2C[C@@H](O)[C@H](CO)O2)c(=O)[nH]c1=O [β-L-Thy] | 60 | 0.8 | –
C=CCOC(=O)O[C@@H](C(=O)O[C@H]1C[C@@]2(O)[C@@H](OC(=O)c3ccccc3)[C@@H]3[C@]4(OC(C)=O)CO[C@@H]4C[C@H](O)[C@@]3(C)C(=O)[C@H](OC(C)=O)C(=C1C)C2(C)C)[C@@H](NC(=O)c1ccccc1)c1ccccc1 [PXL-2′Alloc] | – | – | Ave. MPA Act (tubulin): A (A<60)
CC[C@]1(O)C[C@@H]2CN(CCc3c([nH]c4ccccc34)[C@@](C(=O)OC)(c3cc4c(cc3OC)N(C)[C@H]3[C@@](O)(C(=O)NCCCCCCN)[C@H](O)[C@]5(CC)C=CCN6CC[C@]43[C@@H]65)C2)C1 [VBL-3Am-ALK(6)-NH2] | – | – | Ave. MPA Act (tubulin): C (C>100)
Nc1ccn([C@H]2CC[C@@H](CO)O2)c(=O)n1 [R4 = H, R5 = H, R3 = H (ddCy, Zalcitabine)] | <1 | 30 | –
Cc1cn([C@@H]2O[C@H](CO)[C@@H](O)[C@@H]2O)c(=O)[nH]c1=O [R2 = CH3, R5 = OH (araT), araT] | 60 | – | –

Compound | TK2 (TK2) | dCK [1] | other results
Nc1ccn([C@H]2C[C@H](F)[C@@H](CO)O2)c(=O)n1 [R4 = H, R5 = H, R3 = F] | <1 | 60 | –
4-deacetyl-3-de-(methoxycarbonyl)-vinblastin-3-yl-N-{N′-Boc-2-[2-[2-[2-ethoxy]ethoxy]ethoxy]ethylamino}-aminocarbonyl) [VBL-3Am-PEG(11)-NH(B)] | – | – | Ave. MPA Act (tubulin): B (B=60-100)
Cc1cn([C@H]2CC[C@@H](CO)O2)c(=O)[nH]c1=O [β-ddT(3′-deoxyThy), 3′-deoxyThy] | 3.2 | – | –
CC[C@]1(O)C[C@@H]2CN(CCc3c([nH]c4ccccc34)[C@@](C(=O)OC)(c3cc4c(cc3OC)N(C)[C@H]3[C@@](O)(C(=O)NCCCCCCCCCCCCN)[C@H](O)[C@]5(CC)C=CCN6CC[C@]43[C@@H]65)C2)C1 [VBL-3Am-ALK(12)-NH2] | – | – | Ave. MPA Act (tubulin): B (B=60-100)
Nc1ccn([C@H]2CC[C@@H](CO)O2)c(=O)n1 [β-ddC(2′,3′-dideoxyC), 2′,3′-dideoxyC] | – | 7.1 | –
Cc1cn(C2CCC(CO)O2)c(=O)[nH]c1=O (stereo not drawn) [α-ddT] | 9.8 | – | –
CC[C@]1(O)C[C@@H]2CN(CCc3c([nH]c4ccccc34)[C@@](C(=O)OC)(c3cc4c(cc3OC)N(C)[C@H]3[C@@](O)(C(=O)NCCCCCCCCCCCCNC(=O)OC(C)(C)C)[C@H](O)[C@]5(CC)C=CCN6CC[C@]43[C@@H]65)C2)C1 [VBL-3Am-ALK(12)-NH(B)] | – | – | Ave. MPA Act (tubulin): A (A<60)
CC[C@]1(O)C[C@@H]2CN(CCc3c([nH]c4ccccc34)[C@@](C(=O)OC)(c3cc4c(cc3OC)N(C)[C@H]3[C@@](O)(C(=O)OC)[C@H](O)[C@]5(CC)C=CCN6CC[C@]43[C@@H]65)C2)C1 [Desacetyl vinblastine] | – | – | Ave. MPA Act (tubulin): C (C>100)
Nc1ccn([C@@H]2C[C@@H](O)[C@H](CO)O2)c(=O)n1 [β-L-dC] | 70 | – | –
CC[C@]1(O)C[C@@H]2CN(CCc3c([nH]c4ccccc34)[C@@](C(=O)OC)(c3cc4c(cc3OC)N(C)[C@H]3[C@@](O)(C(=O)NN)[C@H](O)[C@]5(CC)C=CCN6CC[C@]43[C@@H]65)C2)C1 [Desacetylvinblastine monohydrazine] | – | – | Ave. MPA Act (tubulin): C (C>100)
CC(=O)O[C@H]1C(=O)[C@]2(C)[C@@H](OC(=O)NCCCCCCN)C[C@H]3OC[C@@]3(OC(C)=O)[C@H]2[C@H](OC(=O)c2ccccc2)[C@]2(O)C[C@H](OC(=O)[C@H](O)[C@@H](NC(=O)c3ccccc3)c3ccccc3)C(C)=C1C2(C)C [PXL-7Ca-ALK(6)-NH2] | – | – | Ave. MPA Act (tubulin): A (A<60)
CC(=O)O[C@H]1C(=O)[C@]2(C)[C@@H](OC(=O)NCCCCCCn3c(=O)c(C)cn([C@H]4C[C@H](O)[C@@H](COP(=O)(O)O)O4)c3=O)C[C@H]3OC[C@@]3(OC(C)=O)[C@H]2[C@H](OC(=O)c2ccccc2)[C@]2(O)C[C@H](OC(=O)[C@H](O)[C@@H](NC(=O)c3ccccc3)c3ccccc3)C(C)=C1C2(C)C [PXL-7Ca-ALK(6)-N3-PhTHY] | – | – | Ave. MPA Act (tubulin): B (B=60-100)
C[C@H]1C=C[C@@H](CO)O1 | <1 | 4 | –
Nc1nc(=O)n([C@H]2C[C@H](O)[C@@H](CO)O2)cc1-c1ccccn1 [R2 = 2-pyridyl, X = C] | 7 | <1 | –
Nc1cn([C@@H]2O[C@H](CO)[C@@H](O)[C@H]2O)c(=O)[nH]c1=O [R2 = NH2, R4 = H, R3 = OH, 5-amino-uridine] | – | – | activity towards dCK [1]: 17%
O=c1ccn([C@@H]2O[C@H](CO)[C@@H](O)[C@H]2O)c(=O)[nH]1 [R2 = H, R5 = OH (araU), araU] | 20 | – | –
Nc1nc(=O)n([C@H]2C[C@H](O)[C@@H](CO)O2)cc1-c1cccnc1 [R2 = 3-pyridyl, X = C] | <1 | 4 | –
Nc1ccn([C@@H]2O[C@H](CO)[C@@H](O)[C@H]2F)c(=O)n1 [R4 = F, R5 = H, R3 = OH] | 30 | 300 | –
Nc1nc(=O)n([C@H]2C[C@H](O)[C@@H](CO)O2)cc1-c1cccs1 [R2 = 2-thienyl, X = C] | 30 | 2 | –
Nc1nc(=O)n([C@H]2C[C@H](O)[C@@H](CO)O2)cc1-c1ccsc1 [R2 = 3-thienyl, X = C] | 30 | <1 | –
Cc1cn([C@H]2C[C@H](O)[C@@H](CO)O2)c(=O)nc1N [R2 = CH3, X = C] | 40 | – | –
(±)-Cytallene | <1 | 20 | –
Nc1nc(Cl)nc2c1ncn2C1CC(CO)C(CO)O1 (stereo not drawn) | – | 40 | –
